Source: PMC9274761, “Effects of Structurally Different HDAC Inhibitors against Trypanosoma cruzi, Leishmania, and Schistosoma mansoni” (ACS Infectious Diseases, 2022)
“And” between values parts separate entries of the source, which are not always exact repeats. Equal entries are not always repeated. Where two headings read alike, the source gives them in different places.

Tests used:
[1] = test system: newly transformed schistosomula (NTS); experiment: Phenotypic screening on newly transformed schistosomula (NTS); format: cell-based, Schistosoma mansoni; settings: for IC50: Schistosoma mansoni, 72 h, read-out: IC50, viability of NTS
S. mansoni adult worms = experiment: Phenotypic screening on S. mansoni adult worms; format: cell-based, Schistosoma mansoni; settings: 72 h
[2] = test system: human retinal pigment epithelial (RPE) cells; experiment: MTT viability assay in RPE cells; format: cell-based; settings: Homo sapiens, RPE, 48 h, read-out: IC50 in RPE cells (cell viability)
[3] = MTT viability assay in RPE cells; format: cell-based, human; settings: human, retinal pigment epithelial (RPE) cells, read-out: percentage of RPE cell viability, 48 h
[4] = test system: L. amazonensis amastigotes in primary mouse macrophages; settings: 10 μM, 3 days, toxic = toxic for macrophages
[5] = test system: L. amazonensis promastigotes; experiment: Resazurin reduction assay, L. amazonensis promastigotes; format: cell-based; settings: Leishmania amazonensis, read-out: percentage of inhibition, L. amazonensis promastigotes
in vitro = settings: mouse
[6] = test system: T. cruzi amastigotes and trypomastigotes; experiment: T. cruzi infection assay in L929 cells (beta-galactosidase Tulahuen strain); format: cell-based, Trypanosoma cruzi; settings: for EC50, growth of T. cruzi amastigotes and trypomastigotes / EC50: mean ± SD; for selectivity index (SI), CC50/EC50: L929 CC50 / T. cruzi EC50; for EC50: read-out: EC50, growth of T. cruzi amastigotes and trypomastigotes
[7] = test system: L. donovani axenic amastigotes; experiment: Resazurin reduction assay, L. donovani axenic amastigotes; format: cell-based; settings: Leishmania donovani, read-out: percentage of inhibition, L. donovani axenic amastigotes
[8] = test system: L. donovani promastigotes; experiment: Resazurin reduction assay, L. donovani promastigotes; format: cell-based; settings: Leishmania donovani, read-out: percentage of inhibition, L. donovani promastigotes
[9] = noninfected L929 fibroblast cells
[10] = 40 μM, infected L929 cells, 96 h, toxic = L929 death
[11] = 80 μM, infected L929 cells, 96 h, toxic = L929 death
[12] = 160 μM, infected L929 cells, 96 h, toxic = L929 death
[13] = Trypanosoma cruzi, infected L929 cells, 96 h, read-out: percentage of T. cruzi growth inhibition
[14] = Trypanosoma cruzi, 2.5 μM, infected L929 cells, 96 h, toxic = L929 death, read-out: percentage of T. cruzi growth inhibition
[15] = Trypanosoma cruzi, 5 μM, infected L929 cells, 96 h, toxic = L929 death, read-out: percentage of T. cruzi growth inhibition
[16] = Trypanosoma cruzi, 10 μM, infected L929 cells, 96 h, toxic = L929 death, read-out: percentage of T. cruzi growth inhibition
[17] = Trypanosoma cruzi, 20 μM, infected L929 cells, 96 h, toxic = L929 death, read-out: percentage of T. cruzi growth inhibition
[18] = 10 μM, infected L929 cells, 96 h, toxic = L929 death
[19] = 20 μM, infected L929 cells, 96 h, toxic = L929 death
[20] = Trypanosoma cruzi, L929, 96 h, infected L929 cells, 96 h

SMILES	percentage of NTS activity, 72 h ([1]; 1 μM)	percentage of NTS activity, 72 h ([1]; 10 μM)	percentage of NTS activity, 72 h ([1]; 20 μM)	IC50 [1] [nM]	percentage of activity (death induction), S. mansoni adult worms (S. mansoni adult worms; 20 μM) [%]	IC50 [2] [µM]	viability at 48 h, 1 µM [3] [%]	viability at 48 h, 5 µM [3] [%]	viability at 48 h, 10 µM [3] [%]	viability at 48 h, 25 µM [3] [%]	viability at 48 h, 50 µM [3] [%]	CC50 at 96 h (in vitro; [9]) [µM]	percentage of T. cruzi growth inhibition [6, 10]	percentage of T. cruzi growth inhibition [6, 11]	percentage of T. cruzi growth inhibition [6, 12]	inhibition at 1.25 µM [6, 13] [%]	inhibition at 2.5 µM [6, 14] [%]	inhibition at 5 µM [6, 15] [%]	EC50, growth of T. cruzi amastigotes and trypomastigotes ([6]; infected L929 cells, 96 h)	inhibition at 20 µM [7] [%]	other results
CC(C)(C)OC(=O)Nc1cccc(C(=O)/C=C/c2ccc(C(=O)NO)cc2)c1 [Compound 19]	24.0 ± 0.0%	100.0 ± 0.0%	100.0 ± 0.0%	1290	58.6 ± 0	48.7	75.6 ± 16.9	80.5 ± 13.7	82 ± 12.3	68.6 ± 1.3	52.8 ± 16.1										
O=C(CCCCSc1nc(-c2ccc(-c3ccccc3)cc2)cc(=O)[nH]1)NO [Compound 1]		29.3 ± 0.9%	43.3 ± 1.9%	> 20000								20	toxic	toxic	toxic ^e	0	0	0	inactive	29 ± 14	HCA outcome against intramacrophagic L. amazonensis amastigotes [4]: toxic; inhibition at 20 µM [5]: 2.1 ± 3.2%; inhibition at 10 µM [6, 16]: 0%; inhibition at 20 µM [6, 17]: 0%
CC(C)(C)OC(=O)Nc1ccc(C(=O)/C=C/c2ccc(C(=O)NO)cc2)cc1 [Compound 18]	26.0 ± 1.0%	100.0 ± 0.0%	100.0 ± 0.0%	1260	56.0 ± 7.8	24.7	67.9 ± 4.2	73.8 ± 3.3	71 ± 7.8	50.3 ± 7.4	43.1 ± 0.1										percentage of activity (death induction), S. mansoni adult worms (S. mansoni adult worms; 10 μM): 43.1 ± 2.0%
Cn1c(/C=C/C(=O)c2ccc(NC(=O)OC(C)(C)C)cc2)ccc1C(=O)NO [Compound 17]	28.0 ± 0.0%	100.0 ± 0.0%	100.0 ± 0.0%	1230	58.6 ± 0	> 50	74.2 ± 5.2	91.8 ± 11.5	102 ± 15.2	91.9 ± 4.5	77.4 ± 2.3										
Nc1ccccc1NC(=O)c1ccc(CNC(=O)OCc2cccnc2)cc1 [Compound 9, entinostat, reference compound]		40.0 ± 2.0%	42.3 ± 0.0%	> 20000									toxic	toxic	toxic	0	0	0	inactive	28.9 ± 0.9	HCA outcome against intramacrophagic L. amazonensis amastigotes [4]: toxic; CC50 at 96 h (in vitro): 20 µM; inhibition at 10 µM [6, 16]: 0%; inhibition at 20 µM [6, 17]: 0%; inhibition at 0.8 µM [7]: 6.7 ± 3.8%; inhibition at 4 µM [7]: 2.9 ± 10.1%
O=C(/C=C/c1ccc(Cc2nnc(Cc3cccc4ccccc34)o2)cc1)NO [Compound 7]		38.0 ± 1.2%	39.4 ± 1.0%	> 20000								5	toxic	toxic	toxic	0	0	21	inactive		percentage of T. cruzi growth inhibition [6, 18]: toxic; percentage of T. cruzi growth inhibition [6, 19]: toxic
CC(C)(C)OC(=O)Nc1ccc(C(=O)/C=C/c2ccc(/C=C/C(=O)NO)cc2)cc1 [Compound 20]	22.0 ± 1.0%	100.0 ± 0.0%	100.0 ± 0.0%	1320	40.5 ± 2.6	27.2	80 ± 11	71.6 ± 9.2	63 ± 6	59.5 ± 2.4	45.6 ± 4.8										percentage of activity (death induction), S. mansoni adult worms (S. mansoni adult worms; 10 μM): 31.3 ± 2.0%
CC1=C(/C=C/C(C)=C/C=C/C(C)=C/C(=O)Nc2ccccc2N)C(C)(C)CCC1 [Compound 8]		37.9 ± 0.0%	70% and 71.1 ± 1.0%	12800	52.8 ± 2.8	> 50	95.3 ± 28.7	115 ± 9.4	90.4 ± 16.7	98.8 ± 4.6	72 ± 5.8	80			toxic	0	0	7		41.8 ± 1.4	inhibition at 0.8 µM [5]: 8.1 ± 2.1%; inhibition at 4 µM [5]: 8.3 ± 3.4%; inhibition at 0.8 µM ([8]; 0.8 μM): 2.3 ± 1.4%; inhibition at 20 µM [8]: 6.3 ± 1.7%; percentage of activity (death induction), S. mansoni adult worms (S. mansoni adult worms; 10 μM): 36.1 ± 2.8%; selectivity index (SI), CC50/EC50 [6]: 5.7; EC50 [6, 20]: 13.9 µM; inhibition at 10 µM [6, 16]: 32%; inhibition at 20 µM [6, 17]: 78%; inhibition at 40 µM ([6]; Trypanosoma cruzi, 40 μM, infected L929 cells, 96 h, toxic = L929 death, read-out: percentage of T. cruzi growth inhibition): 76%; inhibition at 80 µM ([6]; Trypanosoma cruzi, 80 μM, infected L929 cells, 96 h, toxic = L929 death, read-out: percentage of T. cruzi growth inhibition): 88%; EC50 ([6]; infected L929 cells, 96 h): 14 ± 3.4 µM; inhibition at 0.8 µM [7]: 4.3 ± 1.1%; inhibition at 4 µM [7]: 5.8 ± 2.5%
CC(C)(C)OC(=O)Nc1cccc(C(=O)/C=C/c2ccc(/C=C/C(=O)NO)cc2)c1 [Compound 4]	24% and 24.0 ± 0.0%	100% and 100.0 ± 0.0%	100% and 100.0 ± 0.0%	1290	63.8 ± 0	15.6	75.7 ± 11.4	71.5 ± 12.8	50.2 ± 8.4	40.4 ± 9.8	45.2 ± 6.6	5	toxic	toxic	toxic	0	0	85		93.6 ± 0.4	HCA outcome against intramacrophagic L. amazonensis amastigotes [4]: toxic; inhibition at 0.8 µM [5]: 10.5 ± 2.9%; inhibition at 4 µM [5]: 95.7 ± 0.3%; inhibition at 20 µM [5]: 97.9 ± 0.4%; inhibition at 20 µM [8]: 95.9 ± 0.3%; percentage of activity (death induction), S. mansoni adult worms (S. mansoni adult worms; 10 μM): 45.1 ± 3.9%; percentage of T. cruzi growth inhibition [6, 18]: toxic; percentage of T. cruzi growth inhibition [6, 19]: toxic; selectivity index (SI), CC50/EC50 [6]: 1.25; EC50 [6, 20]: 4 ± 0.07 µM; inhibition at 0.8 µM [7]: 39.5 ± 2%; inhibition at 4 µM [7]: 61.4 ± 4.3%
O=C(Cn1ccnc1[N+](=O)[O-])NCc1ccccc1 [BZN, benznidazole, reference compound]																					selectivity index (SI), CC50/EC50 [6]: 625; EC50 [6, 20]: 3.8 µM
O=C(/C=C/c1ccc(NC(=O)Cc2cccc3ccccc23)cn1)NO [Compound 5]		31.0 ± 0.0%	30.8 ± 0.0%	> 20000								1.25	toxic	toxic	toxic	0			inactive		percentage of T. cruzi growth inhibition ([6]; 2.5 μM, infected L929 cells, 96 h, toxic = L929 death): toxic; percentage of T. cruzi growth inhibition ([6]; 5 μM, infected L929 cells, 96 h, toxic = L929 death): toxic; percentage of T. cruzi growth inhibition [6, 18]: toxic; percentage of T. cruzi growth inhibition [6, 19]: toxic
